From PMC9177597, “Structural basis of substrate recognition and translocation by human very long-chain fatty acid transporter ABCD1” (Nature Communications, 2022)
Positions count from the first letter of the chain named.

How the values were obtained:
Assay in all cases: substrate-stimulated ATPase assay (colorimetric Pi release)
Format in all cases: biochemical
chABCD1 (chimeric ABCD1) [1] = target: T1, chABCD1 (chimeric ABCD1) (Homo sapiens, UniProt P33897, G343V); conditions: 5 μM C22:0-CoA, 2 mM ATP, 2 mM MgCl2, LMNG + CHS, pH 7.5, 37 °C
T1 construct: single polypeptide: N-terminal FLAG tag, PMP-4 residues 1-65 replacing human ABCD1 residues 1-63, then human ABCD1 64-745; HEK293F; homodimer; LMNG/CHS for assays, digitonin for cryo-EM; with PMP-4 (peroxisomal membrane protein related, ABCD1 homolog, Caenorhabditis elegans; N-terminal segment fused to the target chain)
T1 sequence (P33897 64-745 G343V): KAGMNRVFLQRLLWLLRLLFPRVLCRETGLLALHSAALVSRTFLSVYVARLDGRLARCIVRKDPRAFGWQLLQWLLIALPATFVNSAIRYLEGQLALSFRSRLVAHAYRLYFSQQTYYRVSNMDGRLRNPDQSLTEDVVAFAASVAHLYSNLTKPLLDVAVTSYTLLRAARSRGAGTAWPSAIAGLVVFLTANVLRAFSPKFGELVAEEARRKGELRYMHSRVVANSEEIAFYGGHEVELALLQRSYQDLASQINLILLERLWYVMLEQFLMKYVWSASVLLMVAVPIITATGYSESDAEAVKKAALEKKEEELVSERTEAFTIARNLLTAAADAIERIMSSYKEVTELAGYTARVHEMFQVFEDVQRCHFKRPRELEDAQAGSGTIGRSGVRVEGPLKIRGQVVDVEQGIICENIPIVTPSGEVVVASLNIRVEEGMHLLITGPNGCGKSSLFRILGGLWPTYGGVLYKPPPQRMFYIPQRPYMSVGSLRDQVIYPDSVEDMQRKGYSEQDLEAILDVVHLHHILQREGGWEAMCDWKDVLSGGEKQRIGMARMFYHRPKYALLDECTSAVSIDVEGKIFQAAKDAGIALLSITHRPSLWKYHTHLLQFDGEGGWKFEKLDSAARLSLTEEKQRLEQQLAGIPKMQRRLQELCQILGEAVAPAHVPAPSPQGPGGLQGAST

chABCD1 (chimeric ABCD1) [2] = target: T2, chABCD1 (chimeric ABCD1) (Homo sapiens, UniProt P33897, R401Q); conditions: 5 μM C22:0-CoA, 2 mM ATP, 2 mM MgCl2, LMNG + CHS, pH 7.5, 37 °C
T2 construct: single polypeptide: N-terminal FLAG tag, PMP-4 residues 1-65 replacing human ABCD1 residues 1-63, then human ABCD1 64-745; HEK293F; homodimer; LMNG/CHS for assays, digitonin for cryo-EM; with PMP-4 (peroxisomal membrane protein related, ABCD1 homolog, Caenorhabditis elegans; N-terminal segment fused to the target chain)
T2 sequence (P33897 64-745 R401Q): T1 sequence (P33897 64-745 G343V) with V280G, R338Q

chABCD1 (chimeric ABCD1) [3] = target: T3, chABCD1 (chimeric ABCD1) (Homo sapiens, UniProt P33897)
T3 construct: single polypeptide: N-terminal FLAG tag, PMP-4 residues 1-65 replacing human ABCD1 residues 1-63, then human ABCD1 64-745; HEK293F; homodimer; LMNG/CHS for assays, digitonin for cryo-EM; with PMP-4 (peroxisomal membrane protein related, ABCD1 homolog, Caenorhabditis elegans; N-terminal segment fused to the target chain)
T3 sequence (P33897 64-745): T1 sequence (P33897 64-745 G343V) with V280G

Compound: CCCCCCCCCCCCCCCCCCCCCC(=O)SCCNC(=O)CCNC(=O)[C@H](O)C(C)(C)COP(=O)(O)OP(=O)(O)OC[C@H]1O[C@@H](n2cnc3c(N)ncnc32)[C@H](O)[C@@H]1OP(=O)(O)O [C22:0-CoA]
- relative ATPase activity (chABCD1 (chimeric ABCD1) [1]): displayed significantly decreased substrate-simulated ATPase activity, compared to the wild-type
- relative ATPase activity (chABCD1 (chimeric ABCD1) [2]): displayed significantly decreased substrate-simulated ATPase activity, compared to the wild-type
- EC50 (chABCD1 (chimeric ABCD1) [3]): ~2000 nM
